Data from US20230265116A1, “DEGRADATION OF (EGFR) BY CONJUGATION OF EGFR INHIBITORS WITH E3 LIGASE LIGAND AND METHODS OF USE” (BEIGENE, LTD., priority 2020, published 2023).

Legend:
[1] = tested on: EGFR Del19/T790M/C797S (BaF3-DTC cells); assay: EGFR degradation HTRF assay, BaF3-DTC cells; format: cell-based; details: 16h treatment; for DTC Dmax (%): maximum percentage of degradation; for DC50: read-out: DTC DC50
How it was run: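 Cells treated 16 h at 37 °C, 5% CO2 in medium with 0.2% DMSO; top final concentration 10 uM, 5-fold dilution, 8 doses. Lysates read by HTRF (665/620 nm); degradation % versus DMSO high control, DC50 from four-parameter fit, Dmax as maximal degradation.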

[2] = molecular target: T1, EGFR L858R/T790M/C797S (BaF3-LTC cells) (Homo sapiens, UniProt P00533, C797S/L858R/T790M); assay: EGFR degradation HTRF assay, BaF3-LTC cells; format: cell-based; details: BaF3-LTC, 16h treatment; for Dmax: maximum percentage of degradation, read-out: LTC Dmax (%); for DC50: read-out: LTC DC50
T1 construct: expressed in transfected cells; host or cells: BaF3
T1 sequence (P00533 25-1210 T790M/C797S/L858R): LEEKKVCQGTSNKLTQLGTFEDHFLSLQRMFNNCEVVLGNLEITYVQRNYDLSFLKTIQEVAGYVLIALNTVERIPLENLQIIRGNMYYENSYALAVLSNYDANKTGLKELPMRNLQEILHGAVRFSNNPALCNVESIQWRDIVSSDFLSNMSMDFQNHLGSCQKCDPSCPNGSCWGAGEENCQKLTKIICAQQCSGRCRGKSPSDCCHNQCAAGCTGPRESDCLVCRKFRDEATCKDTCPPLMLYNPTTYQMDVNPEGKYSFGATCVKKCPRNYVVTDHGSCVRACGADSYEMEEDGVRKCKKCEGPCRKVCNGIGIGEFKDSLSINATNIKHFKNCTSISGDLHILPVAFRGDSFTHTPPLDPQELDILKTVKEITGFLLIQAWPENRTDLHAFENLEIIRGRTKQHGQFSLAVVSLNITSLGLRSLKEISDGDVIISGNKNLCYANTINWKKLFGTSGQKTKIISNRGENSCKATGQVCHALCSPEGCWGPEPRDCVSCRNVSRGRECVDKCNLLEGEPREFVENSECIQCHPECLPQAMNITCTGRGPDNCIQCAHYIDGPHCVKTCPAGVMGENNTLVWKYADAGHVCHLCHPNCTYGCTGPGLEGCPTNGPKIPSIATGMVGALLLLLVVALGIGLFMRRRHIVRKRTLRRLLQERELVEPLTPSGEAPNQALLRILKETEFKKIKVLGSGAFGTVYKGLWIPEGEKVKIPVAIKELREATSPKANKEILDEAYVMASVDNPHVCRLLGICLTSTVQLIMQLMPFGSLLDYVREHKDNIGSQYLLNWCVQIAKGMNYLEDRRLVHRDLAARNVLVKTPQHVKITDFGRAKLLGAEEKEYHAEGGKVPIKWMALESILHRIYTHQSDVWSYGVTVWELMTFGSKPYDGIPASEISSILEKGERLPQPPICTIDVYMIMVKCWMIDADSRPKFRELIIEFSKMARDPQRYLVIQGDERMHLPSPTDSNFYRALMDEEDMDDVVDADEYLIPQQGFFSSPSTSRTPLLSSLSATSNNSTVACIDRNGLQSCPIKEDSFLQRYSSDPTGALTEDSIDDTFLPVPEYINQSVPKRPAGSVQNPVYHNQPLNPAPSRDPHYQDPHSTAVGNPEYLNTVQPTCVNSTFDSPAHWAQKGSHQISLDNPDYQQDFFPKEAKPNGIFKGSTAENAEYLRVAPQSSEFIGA
How it was run: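 EGFR remaining after a 16 h, 37 °C exposure (8 doses, 5-fold steps from 10 uM final, 0.2% DMSO) was quantified by HTRF antibodies in cell lysate. Percent inhibition relative to DMSO control was fitted by four-parameter logistic to give DC50; Dmax denotes maximal degradation.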

| DC50 [1] | Dmax [2] | DC50 [2] | Structure (SMILES) | DTC Dmax (%) [1] |
| --- | --- | --- | --- | --- |
| 17.5 nM | 78% | 30.1 nM | CCc1cc(Nc2ncc(Br)c(Nc3ccc4nccnc4c3P(C)(C)=O)n2)c(OC)cc1N1CCC(N2CCN(C[C@@H]3CCN(c4ccc5c(c4)C(=O)N(C4CCC(=O)NC4=O)C5=O)C3)CC2)CC1 (stereo partly drawn) [Example 235, 5-((S)-3-((4-(1-(4-((5-bromo-4-((5-(dimethylphosphoryl)quinoxalin-6-yl)amino)pyrimidin-2-yl)amino)-2-ethyl-5-methoxyphenyl)piperidin-4-yl)piperazin-1-yl)methyl)pyrrolidin-1-yl)-2-(2,6-dioxopiperidin-3-yl)isoindoline-1,3-dione] | 81.09% |
| 43.3 nM | 87.4% | 77.1 nM | CCc1cc(Nc2ncc(Br)c(Nc3ccc4nccnc4c3P(C)(C)=O)n2)c(OC)cc1N1CCC(N2CCN(C[C@H]3C[C@H](N(C)c4cccc(C5CCC(=O)NC5=O)c4)C3)CC2)CC1 (stereo partly drawn) [Example 307, 3-(3-(((1r,3r)-3-((4-(1-(4-((5-bromo-4-((5-(dimethylphosphoryl)quinoxalin-6-yl)amino)pyrimidin-2-yl)amino)-2-ethyl-5-methoxyphenyl)piperidin-4-yl)piperazin-1-yl)methyl)cyclobutyl)(methyl)amino)phenyl)piperidine-2,6-dione] | 73.68% |
| 4.88 nM | 85% | 36.4 nM | CCc1cc(Nc2ncc(Br)c(Nc3ccc4nccnc4c3P(C)(C)=O)n2)c(OC)cc1N1CCC(N2CCN(C3CCN(c4ccc(C5CCC(=O)NC5=O)cc4)CC3)CC2)CC1 (stereo not drawn) [Example 299, 3-(4-(4-(4-(1-(4-((5-bromo-4-((5-(dimethylphosphoryl)quinoxalin-6-yl)amino)pyrimidin-2-yl)amino)-2-ethyl-5-methoxyphenyl)piperidin-4-yl)piperazin-1-yl)piperidin-1-yl)phenyl)piperidine-2,6-dione] | 80.72% |
| 2.69 nM | 90.9% | 13.6 nM | CCc1cc(Nc2ncc(Br)c(Nc3ccc4nc(C)ccc4c3P(C)(C)=O)n2)c(OC)cc1N1CCC(N2CCN(CCc3ccc4c(c3)C3(CC3)C(=O)N4C3CCC(=O)NC3=O)CC2)CC1 (stereo not drawn) [Example 710, 3-(5′-(2-(4-(1-(4-((5-bromo-4-((5-(dimethylphosphoryl)-2-methylquinolin-6-yl)amino)pyrimidin-2-yl)amino)-2-ethyl-5-methoxyphenyl)piperidin-4-yl)piperazin-1-yl)ethyl)-2′-oxospiro[cyclopropane-1,3′-indolin]-1′-yl)piperidine-2,6-dione] | 87.65% |
| 9.57 nM | 85.8% | 17.1 nM | CCc1cc(Nc2ncc(Br)c(Nc3ccc4nccnc4c3P(C)(C)=O)n2)c(OC)cc1N1CCC(N2CCN(C(=O)C3CN(c4ccc(C5CCC(=O)NC5=O)c(C#N)c4)C3)CC2)CC1 (stereo not drawn) [Example 306, 5-(3-(4-(1-(4-((5-bromo-4-((5-(dimethylphosphoryl)quinoxalin-6-yl)amino)pyrimidin-2-yl)amino)-2-ethyl-5-methoxyphenyl)piperidin-4-yl)piperazine-1-carbonyl)azetidin-1-yl)-2-(2,6-dioxopiperidin-3-yl)benzonitrile] | 73.14% |
| 1.72 nM | 92% | 6.8 nM | CCc1cc(Nc2ncc(Br)c(Nc3ccc4ncccc4c3P(C)(C)=O)n2)c(OC)cc1N1CCC(N2CCN(CCc3cc(F)c(C4CCC(=O)NC4=O)c(F)c3)CC2)CC1 (stereo not drawn) [Example 201, 3-(4-(2-(4-(1-(4-((5-bromo-4-((5-(dimethylphosphoryl)quinolin-6-yl)amino)pyrimidin-2-yl)amino)-2-ethyl-5-methoxyphenyl)piperidin-4-yl)piperazin-1-yl)ethyl)-2,6-difluorophenyl)piperidine-2,6-dione] | 95.68% |
| 2.9 nM | 87.3% | 9.19 nM | COc1cc(N2CCC(N3CCN(CCC4CCN(c5cc(F)c(C6CCC(=O)NC6=O)c(F)c5)CC4)CC3)CC2)ccc1Nc1ncc(Br)c(Nc2ccc3nc(C)ccc3c2P(C)(C)=O)n1 (stereo not drawn) [Example 218, 3-(4-(4-(2-(4-(1-(4-((5-bromo-4-((5-(dimethylphosphoryl)-2-methylquinolin-6-yl)amino)pyrimidin-2-yl)amino)-3-methoxyphenyl)piperidin-4-yl)piperazin-1-yl)ethyl)piperidin-1-yl)-2,6-difluorophenyl)piperidine-2,6-dione] | 97.83% |
| 2.1 nM | 95.5% | 3.92 nM | CCc1cc(Nc2ncc(Br)c(Nc3ccc4nc(C)ccc4c3P(C)(C)=O)n2)c(OC)cc1N1CCC(N2CCN(C(=O)[C@H]3C[C@H](Nc4cc(F)c(C5CCC(=O)NC5=O)c(F)c4)C3)CC2)CC1 (stereo partly drawn) [Example 209, 3-(4-(((1r,3r)-3-(4-(1-(4-((5-bromo-4-((5-(dimethylphosphoryl)-2-methylquinolin-6-yl)amino)pyrimidin-2-yl)amino)-2-ethyl-5-methoxyphenyl)piperidin-4-yl)piperazine-1-carbonyl)cyclobutyl)amino)-2,6-difluorophenyl)piperidine-2,6-dione] | 96.2% |
| 3.83 nM | 87.7% | 5.95 nM | CCc1cc(Nc2ncc(Br)c(Nc3ccc4nccnc4c3P(C)(C)=O)n2)c(OC)cc1N1CCC(N2CCN(C(=O)[C@H]3CCN(c4ccc5c(c4)CN(C4CCC(=O)NC4=O)C5=O)C3)CC2)CC1 (stereo partly drawn) [Example 240, 3-(5-((S)-3-(4-(1-(4-((5-bromo-4-((5-(dimethylphosphoryl)quinoxalin-6-yl)amino)pyrimidin-2-yl)amino)-2-ethyl-5-methoxyphenyl)piperidin-4-yl)piperazine-1-carbonyl)pyrrolidin-1-yl)-1-oxoisoindolin-2-yl)piperidine-2,6-dione] | 89.2% |
| 9.2 nM | 88.3% | 39.3 nM | CCc1cc(Nc2ncc(Br)c(Nc3ccc4nccnc4c3P(C)(C)=O)n2)c(OC)cc1N1CCC(N2CCN(CCc3cc(F)c(C4CCC(=O)NC4=O)c(Cl)c3)CC2)CC1 (stereo not drawn) [Example 238, 3-(4-(2-(4-(1-(4-((5-bromo-4-((5-(dimethylphosphoryl)quinoxalin-6-yl)amino)pyrimidin-2-yl)amino)-2-ethyl-5-methoxyphenyl)piperidin-4-yl)piperazin-1-yl)ethyl)-2-chloro-6-fluorophenyl)piperidine-2,6-dione] | 93.21% |
| 8.56 nM | 82.9% | 31.3 nM | CCc1cc(Nc2ncc(Br)c(Nc3ccc4nccnc4c3P(C)(C)=O)n2)c(OC)cc1N1CCC(N2CCN(C(=O)[C@H]3CCN(c4ccc(C5CCC(=O)NC5=O)cc4)C3)CC2)CC1 (stereo partly drawn) [Example 223, 3-(4-((S)-3-(4-(1-(4-((5-bromo-4-((5-(dimethylphosphoryl)quinoxalin-6-yl)amino)pyrimidin-2-yl)amino)-2-ethyl-5-methoxyphenyl)piperidin-4-yl)piperazine-1-carbonyl)pyrrolidin-1-yl)phenyl)piperidine-2,6-dione] | 86.61% |
| 5.6 nM | 89.3% | 13 nM | CCc1cc(Nc2ncc(Br)c(Nc3ccc4nccnc4c3P(C)(C)=O)n2)c(OC)cc1N1CCC(N2CCN(CC3CCN(c4ccc5c(c4)CN(C4CCC(=O)NC4=O)C5=O)CC3)CC2)CC1 (stereo not drawn) [Example 244, 3-(5-(4-((4-(1-(4-((5-bromo-4-((5-(dimethylphosphoryl)quinoxalin-6-yl)amino)pyrimidin-2-yl)amino)-2-ethyl-5-methoxyphenyl)piperidin-4-yl)piperazin-1-yl)methyl)piperidin-1-yl)-1-oxoisoindolin-2-yl)piperidine-2,6-dione] | 88.74% |
| 25.6 nM | 89.6% | 121 nM | CCc1cc(Nc2ncc(Br)c(Nc3ccc4nc(C)ccc4c3P(C)(C)=O)n2)c(OC)cc1N1CCC(N2CCN(CC3CCN(c4cc(F)c(NC5CCC(=O)NC5=O)c(F)c4)CC3)CC2)CC1 (stereo not drawn) [Example 718, 3-((4-(4-((4-(1-(4-((5-bromo-4-((5-(dimethylphosphoryl)-2-methylquinolin-6-yl)amino)pyrimidin-2-yl)amino)-2-ethyl-5-methoxyphenyl)piperidin-4-yl)piperazin-1-yl)methyl)piperidin-1-yl)-2,6-difluorophenyl)amino)piperidine-2,6-dione] | 79.24% |
| 28.6 nM | 87.5% | 53.7 nM | CCc1cc(Nc2ncc(Br)c(Nc3ccc4nc(C(C)C)ccc4c3P(C)(C)=O)n2)c(OC)cc1N1CCC(N2CCN(CCC3CCN(c4cc(F)c(C5CCC(=O)NC5=O)c(F)c4)CC3)CC2)CC1 (stereo not drawn) [Example 313, 3-(4-(4-(2-(4-(1-(4-((5-bromo-4-((5-(dimethylphosphoryl)-2-isopropylquinolin-6-yl)amino)pyrimidin-2-yl)amino)-2-ethyl-5-methoxyphenyl)piperidin-4-yl)piperazin-1-yl)ethyl)piperidin-1-yl)-2,6-difluorophenyl)piperidine-2,6-dione] | 90.8% |
| 9.34 nM | 88.3% | 16.1 nM | CCc1cc(Nc2ncc(Br)c(Nc3ccc4nccnc4c3P(C)(C)=O)n2)c(OC)cc1N1CCC(N2C[C@@H](C)N(CC3CN(c4ccc5c(c4)C(=O)N(C4CCC(=O)NC4=O)C5=O)C3)[C@@H](C)C2)CC1 (stereo partly drawn) [Example 159, 5-(3-(((2R,6S)-4-(1-(4-((5-bromo-4-((5-(dimethylphosphoryl)quinoxalin-6-yl)amino)pyrimidin-2-yl)amino)-2-ethyl-5-methoxyphenyl)piperidin-4-yl)-2,6-dimethylpiperazin-1-yl)methyl)azetidin-1-yl)-2-(2,6-dioxopiperidin-3-yl)isoindoline-1,3-dione] | 87.25% |
